The record followed here is PMC9692552, “Activity and Synergy of Cu-ATCUN Antimicrobial Peptides” (International Journal of Molecular Sciences, 2022).

One test relates to A. baumannii BAA747. In kind it is cell-based, Acinetobacter baumannii. The protocol:
(§1) The minimum inhibitory concentration of a peptide is the concentration at which no observable bacterial growth can be determined by visual inspection. MIC values are useful for determining the potential of a test article as a therapeutic, as well as in comparison to other test articles. A variety of antimicrobial peptides were tested for activity against an array of clinically relevant bacterial strains. The sequences of SMAP-29 derivatives and their key features can be seen in Table 1, with peptides being named in reference to how they were originally published. Peptides OV3-00 and OV3-01 were utilized in this study. Because the template (or parental) peptide, SMAP-29, derived from sheep leukocytes, is hemolytic to human red blood cells, efforts were made to enhance the therapeutic index of the peptide leading to the creation of OV and OV3 [14, 19]. Various derivatives were made and OV3 came to represent two distinct peptides in the literature: the peptide labeled OV3 and a peptide with an additional c-terminal YG, herein labeled OV3-00. Previous work in our laboratory utilized OV3 for the design and synthesis of ATCUN domain peptides, but it lacks a tryptophan or tyrosine residue that allows for more ready quantification of the peptide concentration by the extinction coefficient, leading to a less accurate, more difficult, concentration analysis by mass spectrometry. To ease quantification and facilitate studies on the OV3 series in our laboratory, and compare the effect of the added YG, additional work was pursued using the longer OV3-00 and OV3-01 derivatives.
(§2) Minimum inhibitory concentrations (MICs) of test molecules were established by broth dilution assays. Mid-log phase bacterial cultures of a variety of clinically important organisms were diluted and incubated with a serial dilution of each peptide, starting at 128 µM. The concentration of peptide at which no visible growth occurred was marked as the MIC. Bacterial strains were incubated in Mueller–Hinton Broth (MHB) at 37 degrees Celsius until the OD600 reached between 0.8 and 1. The resulting culture was subsequently diluted 100× into 96-well plates with the test articles. Positive and negative controls containing only MHB incubated with bacteria and MHB, respectively, were also included on the plate. Each 96-well plate was incubated for 16–20 h, and the MIC was determined by visual inspection. To determine the colony-forming units (CFUs) present in each assay, 100 µL of the 100× diluted culture was further diluted by 1000× and plated on agar plates and determined by use of Equation (1). The colonies were counted to ensure that the CFU value was between 10^4 and 10^5. CFU/mL = (mean # of colonies/0.1 mL) (1000 (dilution factor))(1)

The test system of test [1] is E. coli 25922. The class given is cell-based, Escherichia coli. The procedure: as §1, §2
The test system of the next test is P. aeruginosa 27583. The class given is cell-based. The procedure:
as §1, §2

Another test has as its system S. aureus 43300 (MRSA). The class given is cell-based. The procedure:
as §1, §2

The subject of a further test is E. faecium 700221 (VRE). The class given is cell-based. The procedure: as §1, §2
A further test concerns K. pneumoniae 700603. The class given is cell-based. The procedure: as §1, §2
Test [2] relates to E. coli 25922. Description: FIC of peptide pairs (two-way dilution, 96-well plate). The following applies: single peptide on the FIC plate, initial screen, one value given. The class given is cell-based, Escherichia coli. The protocol:
Determining MIC values informed decisions on testing peptides in combination. Fractional inhibitory concentrations determine the ability of test articles to act in concert against a pathogen. FIC determination is experimentally similar to MIC determination, except one test article is diluted down the wells and another is diluted across the wells of the 96-well plate in order to test the synergism of two peptides. […] Synergy is defined as an FIC of less than or equal to 0.5, meaning there is a four-fold reduction in the concentration of each peptide required for inhibition. Any number above 4 indicates a deleterious interaction that reduces the effectiveness of each peptide, and a value between 0.5 and 1 can be considered additive (Equation (2)).
Fractional inhibitory concentrations (FICs) were determined in a manner similar to MIC determinations but with serial dilutions of two peptides running both horizontally and vertically across the 96-well plate. Determination of the FIC can be seen in Equation (2), where FIC is the fractional inhibitory concentration, [A] is the concentration of substrate A at MIC in combination, [B] is the concentration of substrate B at MIC in combination, and MICA and MICB are the MIC of substrate A and substrate B, respectively. FIC = fractional inhibitory concentration, [A] = concentration of A at MIC in combination, [B] = concentration of B at MIC in combination, MICA = minimum inhibitory concentration of A, and MICB = minimum inhibitory concentration of B. When FIC ≤ 0.5 the results are synergistic. If FIC > 4, the results are antagonistic, and when FIC > 0.5, the results are indifferent or additive. (2) FIC=[A]/MICA+ [B]/MICB

In brackets after ≈: the same amount, converted by molar mass. Several values for one entry are separate records, joined by “and”; a condition that tells them apart may be missing. Identical values can stand only once. Like-named read-outs stand apart in the source and are kept apart here. Ends that are not written are not given here. Peptide text beside a SMILES is read from it. A value given as a limit tells only on which side of the number the result lay.

The term MIC denotes the lowest concentration found to suppress growth. Low values mean inhibition by little substance, high ones a need for much substance. `CC[C@H](C)[C@H](NC(=O)[C@H](CC(C)C)NC(=O)[C@H](C)NC(=O)[C@@H]1CCCN1C(=O)[C@H](CC(C)C)NC(=O)CNC(=O)[C@@H](NC(=O)[C@@H](NC(=O)[C@H](CC(C)C)NC(=O)[C@@H](NC(=O)[C@H](CCCCN)NC(=O)[C@H](CCCCN)NC(=O)[C@@H](NC(=O)[C@H](C)NC(=O)[C@@H](NC(=O)[C@@H](NC(=O)[C@H](CC(C)C)NC(=O)[C@H](CCCCN)NC(=O)[C@H](CCCCN)NC(=O)[C@@H](NC(=O)[C@H](Cc1ccccc1)NC(=O)[C@H](CO)NC(=O)[C@H](CCCCN)NC(=O)[C@H](Cc1c[nH]c2ccccc12)NC(=O)[C@H](CCCCN)NC(=O)[C@H](Cc1c[nH]cn1)NC(=O)CNC(=O)CN)[C@@H](C)CC)[C@@H](C)O)[C@@H](C)O)C(C)C)C(C)C)[C@@H](C)O)[C@@H](C)O)C(=O)N[C@@H](CO)C(N)=O` [CP29-01]: the MIC in the test on A. baumannii BAA747 (A. baumannii BAA747, Gram (-), broth dilution in MHB, 37 °C, 16–20 h, visual inspection) is 1 µM (≈ 3.12 µg/mL); with E. coli 25922 [1] (E. coli 25922, Gram (-), broth dilution in MHB, 37 °C, 16–20 h, visual inspection, dilution from 128 µM), 8 µM (≈ 25 µg/mL); in the test on P. aeruginosa 27583 (P. aeruginosa 27583, Gram (-), broth dilution in MHB, 37 °C, 16–20 h, visual inspection) it was 2 µM (≈ 6.25 µg/mL); against S. aureus 43300 (MRSA) (S. aureus 43300 (MRSA), Gram (+), broth dilution in MHB, 37 °C, 16–20 h, visual inspection) it was 16 µM (≈ 50 µg/mL); against E. faecium 700221 (VRE) (E. faecium 700221 (VRE), Gram (+), broth dilution in MHB, 37 °C, 16–20 h, visual inspection), 4 µM (≈ 12.5 µg/mL); in the test on K. pneumoniae 700603 (K. pneumoniae 700603, Gram (-), broth dilution in MHB, 37 °C, 16–20 h, visual inspection), 8 µM (≈ 25 µg/mL).
For `NCC(=O)NCC(=O)N[C@@H](Cc1c[nH]cn1)C(N)=O` [GGH] (H-Gly-Gly-His-NH2), the MIC with A. baumannii BAA747 (BAA747), against E. coli 25922 [1] (25922), in the test with P. aeruginosa 27583 (27583), in the test on S. aureus 43300 (MRSA) (43300), against E. faecium 700221 (VRE) (700221 (VRE)) and in the test on K. pneumoniae 700603 (700603) was >128 µM each time.
With `CC[C@H](C)[C@H](NC(=O)[C@H](Cc1c[nH]cn1)NC(=O)CNC(=O)CN)C(=O)N[C@@H](CC(C)C)C(=O)N1CCC[C@H]1C(=O)N[C@@H](Cc1c[nH]c2ccccc12)C(=O)N[C@@H](CCCCN)C(=O)N[C@@H](Cc1c[nH]c2ccccc12)C(=O)N1CCC[C@H]1C(=O)N[C@@H](Cc1c[nH]c2ccccc12)C(=O)N[C@@H](Cc1c[nH]c2ccccc12)C(=O)N1CCC[C@H]1C(=O)N[C@@H](Cc1c[nH]c2ccccc12)C(=O)N[C@@H](CCCNC(=N)N)C(=O)N[C@@H](CCCNC(=N)N)C(=O)NCC(=O)NCC(=O)N[C@@H](CS)C(N)=O` [IND-01], the MIC in the test with A. baumannii BAA747 (BAA747) was 32 µM (≈ 76 µg/mL); with E. coli 25922 [1] (25922), 32 µM (≈ 76 µg/mL); against P. aeruginosa 27583 (27583) it was >64 µM; in the test with S. aureus 43300 (MRSA) (43300) it was 64 µM (≈ 152 µg/mL); in the test with E. faecium 700221 (VRE) (700221 (VRE)), 8 µM (≈ 19 µg/mL); against K. pneumoniae 700603 (700603), >64 µM.
In the case of `CC(C)C[C@H](NC(=O)[C@H](Cc1ccccc1)NC(=O)[C@@H]1CCCN1C(=O)[C@H](Cc1c[nH]c2ccccc12)NC(=O)[C@H](Cc1c[nH]c2ccccc12)NC(=O)[C@H](Cc1c[nH]c2ccccc12)NC(=O)[C@@H]1CCCN1C(=O)[C@H](Cc1ccccc1)NC(=O)[C@H](CCCNC(=N)N)NC(=O)[C@H](CCCNC(=N)N)NC(=O)[C@@H](N)C(C)C)C(=O)N[C@@H](CCCNC(=N)N)C(=O)N[C@@H](CCCNC(=N)N)C(N)=O` [TRP, tritrpticin], the MIC is 8 µM (≈ 15.2 µg/mL) with A. baumannii BAA747 (BAA747); 8 µM (≈ 15.2 µg/mL) with E. coli 25922 [1] (25922); 16 µM (≈ 30.4 µg/mL) against P. aeruginosa 27583 (27583); 8 µM (≈ 15.2 µg/mL) in the test with S. aureus 43300 (MRSA) (43300); 2 µM (≈ 3.8 µg/mL) against E. faecium 700221 (VRE) (700221 (VRE)); 32 µM (≈ 60.8 µg/mL) against K. pneumoniae 700603 (700603).
Regarding FVQWFSKFLGRIL-NH2 [TempL], the MIC was found to be 4 µM in the test on A. baumannii BAA747 (BAA747); 4 µM against E. coli 25922 [1] (25922); 32 µM against P. aeruginosa 27583 (27583); 4 µM against S. aureus 43300 (MRSA) (43300); 8 µM in the test on E. faecium 700221 (VRE) (700221 (VRE)); 16 µM in the test with K. pneumoniae 700603 (700603).
With “GGHGIGKFLHSAKKWGKAFVGEIMNS-NH2 [Mag2-01]”, the MIC against A. baumannii BAA747 (BAA747) was 8 µM; against E. coli 25922 [1] (25922), 16 µM; in the test with P. aeruginosa 27583 (27583) it was 64 µM; against S. aureus 43300 (MRSA) (43300), >128 µM; against E. faecium 700221 (VRE) (700221 (VRE)), 32 µM; in the test with K. pneumoniae 700603 (700603), 64 µM.
Consider “GGHGVRRFPWWWPFLRR-NH2 [TRP-02, ATCUN derivative of tritrpticin]”, for which the “MICA/MICB, concentration with no growth when dosed separately” value in the test on E. coli 25922 [2] is 8 µM and 16 µM.
Take “GGHGVRRFPWWWPFLRRGGC-NH2 [TRP-03, ATCUN derivative of tritrpticin]”: the “MICA/MICB, concentration with no growth when dosed separately” value in the test on E. coli 25922 [2] is given as 16 µM.
On to GGHIRRIIRKIIHIIKKYG-NH2 [OV3-01], for which the MIC came out at 8 µM with A. baumannii BAA747 (BAA747); 4 µM in the test with E. coli 25922 [1] (25922); 16 µM with P. aeruginosa 27583 (27583); 16 µM in the test with S. aureus 43300 (MRSA) (43300); 4 µM in the test with E. faecium 700221 (VRE) (700221 (VRE)); 16 µM in the test with K. pneumoniae 700603 (700603).
Turning to GGHVRRFPWWWPFLRRGGC-NH2 [TRP-01], the MIC in the test with A. baumannii BAA747 (BAA747) is listed as 16 µM; in the test with E. coli 25922 [1] (25922), 32 µM; in the test on P. aeruginosa 27583 (27583), 64 µM; in the test on S. aureus 43300 (MRSA) (43300), 32 µM; in the test on E. faecium 700221 (VRE) (700221 (VRE)) it was 8 µM; in the test on K. pneumoniae 700603 (700603), 32 µM.
As for GGHYLGALLGPLMNLLQ-NH2 [PFQα-01], the MIC in the test with A. baumannii BAA747 (BAA747) was 128 µM; in the test with E. coli 25922 [1] (25922), >128 µM; in the test with P. aeruginosa 27583 (27583), >128 µM; against S. aureus 43300 (MRSA) (43300) it was 16 µM; against E. faecium 700221 (VRE) (700221 (VRE)), >128 µM; with K. pneumoniae 700603 (700603) it was >128 µM.
As for GILAWKWAWWAWRR-NH2 [CP10A], the MIC against A. baumannii BAA747 (BAA747) was 8 µM; with E. coli 25922 [1] (25922), 16 µM; with P. aeruginosa 27583 (27583), 64 µM; with S. aureus 43300 (MRSA) (43300) it was 4 µM; in the test with E. faecium 700221 (VRE) (700221 (VRE)), 8 µM; with K. pneumoniae 700603 (700603), 32 µM.
Turning to IRRIIRKIIHIIKKYG-NH2 [OV3-00], the MIC in the test with A. baumannii BAA747 (BAA747) is 4 µM; in the test with E. coli 25922 [1] (25922) it was 2 µM; against P. aeruginosa 27583 (27583), 16 µM; in the test on S. aureus 43300 (MRSA) (43300) it was 8 µM; in the test on E. faecium 700221 (VRE) (700221 (VRE)) it was 4 µM; against K. pneumoniae 700603 (700603), 4 µM.
